Test results reported in patent US20180127374A1, “BE[…] AS OPIOID RECEPTORS MODULATORS” (Purdue Pharma L.P., priority 2012, published 2018).
Read-outs that look alike come from different tables or passages of the source.

Legend:
μ-opioid receptor [1] = biological target: T1, μ-opioid receptor (Homo sapiens, UniProt P35372); assay: μ-opioid receptor radioligand dose-displacement binding assay
Experimental: Radioligand dose-displacement binding assays for μ-opioid receptors used 0.3 nM [^3H]-diprenorphine (Perkin Elmer, Shelton, Conn.), with […] membrane protein/well in a final volume of […] binding buffer (10 mM MgCl2, 1 mM EDTA, 5% DMSO, 50 mM HEPES, pH 7.4). Reactions were carried out in the absence or presence of increasing concentrations of unlabeled naloxone. All reactions were conducted in 96-deep well polypropylene plates for 2 hr at room temperature. […] The data were analyzed using the one-site competition curve fitting functions in GraphPad PRISM™ v. 3.0 or higher (San Diego, Calif.), or an in-house function for one-site competition curve-fitting.
Target sequence in this assay (P35372 whole entry): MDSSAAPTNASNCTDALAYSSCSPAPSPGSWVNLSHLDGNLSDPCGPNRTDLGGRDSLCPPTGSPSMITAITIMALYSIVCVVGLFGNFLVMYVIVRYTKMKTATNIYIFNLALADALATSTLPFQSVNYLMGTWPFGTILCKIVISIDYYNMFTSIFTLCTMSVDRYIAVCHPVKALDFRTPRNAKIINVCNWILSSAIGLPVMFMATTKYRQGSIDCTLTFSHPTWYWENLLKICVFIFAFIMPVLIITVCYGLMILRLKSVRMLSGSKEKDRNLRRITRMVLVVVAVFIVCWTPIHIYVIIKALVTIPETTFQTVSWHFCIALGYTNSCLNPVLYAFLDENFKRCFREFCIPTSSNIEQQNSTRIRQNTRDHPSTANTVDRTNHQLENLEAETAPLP

κ opioid receptor [2] = biological target: T2, κ opioid receptor (Homo sapiens, UniProt P41145); assay: κ-opioid receptor [35S]GTPγS functional assay; type: biochemical; set-up: expressed in transfected cells; conditions: for Emax: relative to the effect elicited by U69,593
Experimental: Functional [^35S]GTPγS binding assays were conducted as follows. κ opioid receptor membrane solution was prepared by sequentially adding final concentrations of 0.026 μg/μl κ membrane protein (in-house), 10 μg/mL saponin, 3 μM GDP and 0.20 nM [^35S]GTPγS to binding buffer (100 mM NaCl, 10 mM MgCl2, 20 mM HEPES, pH 7.4) on ice. The prepared membrane solution (190 μl/well) was transferred to 96-shallow well polypropylene plates containing 10 μl of 20× concentrated stock solutions of agonist prepared in DMSO. Plates were incubated for 30 min at a temperature of about 25° C. with shaking.
κ GTP EC50 is the concentration of a compound providing 50% of the maximal response for the compound at a κ receptor.
κ GTP Emax (%) is the maximal effect elicited by a compound relative to the effect elicited by U69,593.

κ opioid receptor [3] = biological target: T2, κ opioid receptor; assay: κ-opioid receptor radioligand dose displacement binding assay; set-up: expressed in transfected cells; host or cells: HEK-293
Experimental: Membranes from recombinant HEK-293 cells expressing the human κ opioid receptor (κ) (cloned in house) were prepared by lysing cells in ice cold hypotonic buffer (2.5 mM MgCl2, 50 mM HEPES, pH 7.4) (10 mL/10 cm dish) followed by homogenization with a tissue grinder/Teflon pestle. Membranes were collected by centrifugation at 30,000×g for 15 min at 4° C. and pellets were resuspended in hypotonic buffer to a final concentration of 1-3 mg/mL. Protein concentrations were determined using the BioRad protein assay reagent with bovine serum albumen as standard. Aliquots of κ receptor membranes were stored at […]

μ-opioid receptor [4] = biological target: T1, μ-opioid receptor; assay: μ-opioid receptor [35S]GTPγS functional assay; type: biochemical; set-up: purchased Perkin Elmer, Shelton, Conn; conditions: for Emax: relative to the effect elicited by DAMGO; for EC50: μ-receptor membranes, read-out: GTPγS μ EC50
Experimental: [^35S]GTPγS functional assays were conducted using freshly thawed μ-receptor membranes (Perkin Elmer, Shelton, Conn.). Assay reactions were prepared by sequentially adding the following reagents to binding buffer (100 mM NaCl, 10 mM MgCl2, 20 mM HEPES, pH 7.4) on ice (final concentrations indicated): membrane protein (0.026 mg/mL), saponin ([…]), GDP ([…]) and [^35S]GTPγS (0.20 nM; Perkin Elmer, Shelton, Conn.). The prepared membrane solution (190 μl/well) was transferred to 96-shallow well polypropylene plates containing 10 μI of 20× concentrated stock solutions of the agonist [D-Ala^e, N-methyl-Phe^4 Gly-ol^5]-enkephalin (DAMGO) prepared in dimethyl sulfoxide (DMSO). Plates were incubated for 30 min at about 25° C. with shaking. […] Data were analyzed using the sigmoidal dose-response curve fitting functions in GraphPad PRISM v. 3.0, or an in-house function for non-linear, sigmoidal dose-response curve-fitting.
μ GTP EC50 is the concentration of a compound providing 50% of the maximal response for the compound at a μ-opioid receptor.
μ GTP Emax (%) is the maximal effect elicited by a compound relative to the effect elicited by DAMGO, a standard μ agonist. Generally, the μ GTP Emax (%) value measures the efficacy of a compound to treat or prevent pain or other Conditions.
Target sequence in this assay (P35372 whole entry, species assumed): as the sequence (P35372 whole entry) above

[5] = κ membrane protein (in-house), read-out: GTPγS κ EC50
[6] = [3H]-U69,593 displacement, HEK-293 membranes, read-out: Ki (nM) Opioid Receptor κ

T2 sequence (P41145 whole entry): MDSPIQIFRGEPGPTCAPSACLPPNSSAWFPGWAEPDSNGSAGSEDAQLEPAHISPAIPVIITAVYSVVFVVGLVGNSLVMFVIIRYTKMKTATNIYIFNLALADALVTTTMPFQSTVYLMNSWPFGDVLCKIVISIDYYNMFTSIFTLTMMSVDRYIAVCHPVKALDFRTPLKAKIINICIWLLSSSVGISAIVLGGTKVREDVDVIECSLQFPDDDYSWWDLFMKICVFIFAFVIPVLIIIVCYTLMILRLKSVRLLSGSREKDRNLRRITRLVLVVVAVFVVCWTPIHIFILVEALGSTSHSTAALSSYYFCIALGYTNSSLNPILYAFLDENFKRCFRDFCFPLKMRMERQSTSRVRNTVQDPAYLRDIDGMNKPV

Row | SMILES | Ki (μ-opioid receptor [1]) [nM] | EC50 (κ opioid receptor [2]) [µM] | Emax (κ opioid receptor [2]) [%] | Ki (κ opioid receptor [3]) [nM] | Ki (μ-opioid receptor [1]; [3H]-diprenorphine displacement, read-out: Ki (nM) Opioid Receptor μ) [nM] | EC50 (κ opioid receptor [2]; κ membrane protein (in-house), μM, read-out: GTPγS κ EC50) [µM] | Emax (μ-opioid receptor [4]) [%] | EC50 (μ-opioid receptor [4]) [nM] | EC50 (κ opioid receptor [2]; [5]) [µM] | Ki (κ opioid receptor [3]; [6]) [nM] | Ki (κ opioid receptor [3]; [3H]-U69,593 displacement, μM, read-out: Ki Opioid Receptor κ) [nM]
1 | COc1ccc2c(c1)[C@@]1(CCC[C@@H](O)CO)CCN(CC3CC3)C(C2)[C@@H]1C [Compound 10, (2R)-5-((6S,11R)-3-(cyclopropylmethyl)-8-methoxy-11-methyl-1,2,3,4,5,6-hexahydro-2,6-methanobenzo[d]azocin-6-yl)pentane-1,2-diol] | 3090 ± 922 | 0.0943 | 95 | 6.68 ± 0.61 | – | – | – | – | – | – | –
2 | C[C@H]1[C@H]2Cc3ccc(O)cc3[C@]1(CCCC(N)=O)CCN2Cc1ccccc1 [Compound 19, 4-((2R,6R,11R)-3-benzyl-8-hydroxy-11-methyl-1,2,3,4,5,6-hexahydro-2,6-methanobenzo[d]azocin-6-yl)butanamide] | – | – | – | – | 2.65 ± 0.36 | > 20 | 13.7 | 40.1 | – | – | –
3 | COc1ccc2c(c1)[C@]1(CCNC(=O)c3cccc(C(=O)O)c3)CCN(CC3CC3)[C@H](C2)[C@@H]1C [Compound 24, 3-((2-((2R,6R,11R)-3-(cyclopropylmethyl)-8-methoxy-11-methyl-1,2,3,4,5,6-hexahydro-2,6-methanobenzo[d]azocin-6-yl)ethyl)carbamoyl)benzoic acid] | – | – | 88.7 | – | – | – | 76.3 | 251 | 0.664 | 130 ± 26.5 | –
4 | COc1ccc2c(c1)[C@]1(CCNC(=O)c3ccc(C(=O)O)cc3)CCN(CC3CC3)[C@H](C2)[C@@H]1C [Compound 25, 4-((2-((2R,6R,11R)-3-(cyclopropylmethyl)-8-methoxy-11-methyl-1,2,3,4,5,6-hexahydro-2,6-methanobenzo[d]azocin-6-yl)ethyl)carbamoyl)benzoic acid] | – | – | 69.3 | – | – | – | 104 | 584 | 2.41 | 479 ± 36.3 | –
5 | COc1ccc2c(c1)[C@]1(CCOc3ccc(C(=O)O)cc3)CCN(CC3CC3)[C@H](C2)[C@@H]1C [Compound 27, 4-(2-((2R,6S,11R)-3-(cyclopropylmethyl)-8-methoxy-11-methyl-1,2,3,4,5,6-hexahydro-2,6-methanobenzo[d]azocin-6-yl)ethoxy)benzoic acid] | – | – | 88.3 | – | – | – | 94.7 | 245 | 3.69 | 330 ± 70.1 | –
6 | C[C@H]1[C@H]2Cc3ccc(O)cc3[C@]1(CCOc1ccc(C(=O)O)cc1)CCN2CC1CC1 [Compound 28, 4-(2-((2R,6S,11R)-3-(cyclopropylmethyl)-8-hydroxy-11-methyl-1,2,3,4,5,6-hexahydro-2,6-methanobenzo[d]azocin-6-yl)ethoxy)benzoic acid] | – | – | 110 | – | – | – | 86.3 | 5.92 | 0.0391 | 5.75 ± 1.04 | –
7 | COc1ccc2c(c1)[C@@]1(CC(=O)O)CCN(CC3CC3)[C@@H](C2)[C@H]1C [Compound 29, 2-((2S,6R,11S)-3-(cyclopropylmethyl)-8-methoxy-11-methyl-1,2,3,4,5,6-hexahydro-2,6-methanobenzo[d]azocin-6-yl)acetic acid] | – | – | – | – | – | – | 24.8 | 346 | – | – | > 20000
8 | C[C@H]1[C@H]2Cc3ccc(O)cc3[C@]1(CCNC(=O)CN(C)C)CCN2CC1CC1 [Compound 30, N-(2-((2R,6R,11R)-3-(cyclopropylmethyl)-8-hydroxy-11-methyl-1,2,3,4,5,6-hexahydro-2,6-methanobenzo[d]azocin-6-yl)ethyl)-2-(dimethylamino)acetamide] | – | – | 96.5 | – | – | – | 82.2 | 4.85 | 0.00177 | 0.05 ± 0.02 | –
9 | C[C@H]1[C@H]2Cc3ccc(O)cc3[C@@]1(CCNC(=O)CN)CCN2CC1CC1 [Compound 31] | – | – | 90.3 | – | – | – | 102 | 2.87 | 0.0012 | 0.07 ± 0.01 | –
